Converted amounts (≈) assume the structure as drawn.
Columns and labels:
[1] = Rapid antimicrobial susceptibility testing (MIC) by flatbed-scanner imaging of doubling dilutions in a well plate, cefepime; format: cell-based
Source text: The dispensing technology may use well plate 205, which may be a standard 96-, 384-, or 1536-well microtiter plate. Well plate 205 contains doubling dilutions of antimicrobials. Any antimicrobials can be used. Antibiotics are mentioned as an example of an antimicrobial, but any antimicrobial or other treatment agent (e.g. antifungal, antiviral, anti-parasitic) can be used unless context clearly dictates otherwise. The doubling dilution series can be prepared at the time of use, or plates with doubling dilutions can be pre-made and stored with lyophilized antibiotics or with antibiotics in broth that are frozen and thawed before use. […] The positive blood culture broth or dilutions of the positive blood culture broth can be added to the wells using any of several liquid handling devices or manually or through use of an inkjet printer 210 which we determined can quantitatively print out positive blood culture broth.
(§1) Typically positive blood-culture broth has organisms at 5×10^9 colony-forming units per mL. In our experiments, we determined that this could be diluted 5-fold in sterile water and 0.3% tween-20 and this dilution dispensed at 250 nl per well to create a starting inoculum of approximately 2.5×10^7 per mL in wells in a 384 well plate containing a volume of 10 μl. […]

E. coli = test: Rapid antimicrobial susceptibility testing (MIC) by flatbed-scanner imaging of doubling dilutions in a well plate, gentamicin; format: cell-based; design: unit not given here; conditions: 37° C.
Source text: The dispensing technology may use well plate 205, which may be a standard 96-, 384-, or 1536-well microtiter plate. Well plate 205 contains doubling dilutions of antimicrobials. Any antimicrobials can be used. Antibiotics are mentioned as an example of an antimicrobial, but any antimicrobial or other treatment agent (e.g. antifungal, antiviral, anti-parasitic) can be used unless context clearly dictates otherwise. The doubling dilution series can be prepared at the time of use, or plates with doubling dilutions can be pre-made and stored with lyophilized antibiotics or with antibiotics in broth that are frozen and thawed before use. In embodiments, 50 μl of broth are added to wells in well plate 205 and desired two-fold dilutions of antibiotics are added to wells using inkjet printing technology 210 as described in WO 2017/218202 A1, the entire contents of which are incorporated by reference for all purposes. In other embodiments, antibiotics can be added either manually or with any of several suitable liquid handling devices. Positive blood culture broth is then added to the microtiter wells. The positive blood culture broth or dilutions of the positive blood culture broth can be added to the wells using any of several liquid handling devices or manually or through use of an inkjet printer 210 which we determined can quantitatively print out positive blood culture broth.
as §1
We have made use of a CCD flatbed scanner to scan plates. In our example, the plates are incubated in a separate incubator and placed on a plate bed scanner at different time points for reading. Using a flatbed scanner, we have determined that accurate AST results can be obtained with incubation times of 1.5 hours or less. […]

CO/N=C(\C(=O)N[C@@H]1C(=O)N2C(C(=O)[O-])=C(C[N+]3(C)CCCC3)CS[C@H]12)c1csc(N)n1 [cefepime]
MIC ([1]; 3 hours of incubation (graph 630)): 31 µg/mL (≈ 64.5 µM)
MIC ([1]; 4 hours of incubation (graph 640)): 31 µg/mL (≈ 64.5 µM)

gentamicin
MIC (E. coli; 2 hours of incubation (graph 520)): 1.0
MIC (E. coli; 3 hours of incubation (graph 530)): 1.0
MIC (E. coli; 4 hours of incubation (graph 540)): 1.0

Source: patent US12655460B2, “Rapid antimicrobial susceptibility testing by image analysis” (Beth Israel Deaconess Medical Center, Inc., priority 2019, dated 2026)
